In patent publication US20190070165A1, “N-HYDROXYISOQUINOLINEDIONE INHIBITORS OF HBV REPLICATION” (Saint Louis University, priority 2016, published 2019):
Read-outs that look alike come from different tables or passages of the source.

Columns and labels:
human RNaseH1 = biological target: T1, human RNaseH1 (Homo sapiens, UniProt O60930); assay: Oligonucleotide-directed RNA cleavage assay, human RNaseH1; assay type: biochemical; settings: for IC50: Table 1, quantitative values; for Human RNaseH1: Table 1, qualitative inhibition; for inhibition of huRNaseH1: compounds at 100, 60 and 20 μM
T1 construct: made in house; host or cells: E. coli
T1 sequence (O60930 1-286): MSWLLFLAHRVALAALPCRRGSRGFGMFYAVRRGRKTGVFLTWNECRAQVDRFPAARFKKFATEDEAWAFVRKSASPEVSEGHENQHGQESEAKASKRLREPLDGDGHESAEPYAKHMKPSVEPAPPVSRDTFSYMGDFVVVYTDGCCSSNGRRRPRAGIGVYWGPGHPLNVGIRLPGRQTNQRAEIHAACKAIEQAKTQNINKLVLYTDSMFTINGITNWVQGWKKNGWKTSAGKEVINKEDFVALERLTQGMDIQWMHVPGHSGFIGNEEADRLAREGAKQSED
Source text: RNaseH expression and purification.
Oligonucleotide-directed RNA cleavage assay.

HBV replication = HBV replication inhibition assay in HepDES19 cells (strand-preferential q-PCR); assay type: cell-based, Hepatitis B virus; settings: for EC50: Hepatitis B virus; for HBV replication inhibition (qualitative): Table 3, qualitative screen at 20 μM
Experimental: HBV replication assay. […] Cells were seeded into 6-well plates and incubated in DMEM/F12, 10% fetal bovine serum (FBS), 1% penicillin/streptomycin (P/S) with 1 μg/mL tetracycline. Tetracycline was withdrawn after 24 hours. The test compound was applied to duplicate wells 48 hours later in medium containing a final DMSO concentration of 1%, and medium containing the compound was refreshed daily for the following two days. Cells were harvested and non-encapsidated nucleic acids were digested with micrococcal nuclease (New England Biolabs). HBV DNA was purified from capsids using QIAamp Cador Pathogen Mini Kit (Qiagen) with proteinase K incubation overnight at 37° C. TaqMan PCR was performed for 40 cycles at an annealing temperature of 60° C.
Thirty-nine HID, HPD, flutimide, and related POH compounds (Structures shown in FIG. 3) were screened for their ability to inhibit HBV replication in HepDES19 cells. […] Inhibition was calculated as the amount of plus-polarity DNA relative to the DMSO treated controls.
Briefly, HepDES19 were seeded in 12-well plates at 2×10^5 cells per well in the absence of tetracycline. Test compound was applied to cells 48 hours after removal of tetracycline. […] HBV DNA was purified from capsids using a QIAamp pathogen minikit with proteinase K digestion extended to overnight at 37° C. TaqMan PCR was performed for 40 cycles with an annealing temperature of 60° C.

HSV-1 = HSV-1 replication inhibition assay in Vero cells; assay type: cell-based, herpes simplex virus 1; settings: read-out: HSV-1 suppression (log10 at 5 μM), class symbol
Experimental: Thirty-seven compounds were counter-screened for efficacy against HSV-1 to evaluate specificity of the inhibitors and to help determine if the efficacy against HBV replication may be due to an unsuspected indirect effect on the cells. Vero cells infected with HSV-1 at an MOI of 0.1 were treated with 5 μM of compound for 24 hours. Inhibition was calculated as log 10 suppression of plaque forming units compared with DMSO vehicle control.
Vero cells were maintained DMEM supplemented with 3% newborn calf serum, 3% bovine growth serum, 2 mM L-glutamine, and P/S. Test compounds were applied to the cells in the presence of 0.05% DMSO. The herpes simplex virus 1 (HSV-1) strain used for screening was a de-identified clinical isolate from the Saint Louis University Hospital passaged once in culture.
Compounds and virus were diluted in phosphate buffered saline (PBS) containing 2% newborn calf serum and 2 mM L-glutamine so that the final concentration of compound was 5 μM. The cells were incubated at 37° C. for 1 hour with the virus containing inoculum, then the inoculum was removed and the wells were washed once in PBS. Compound diluted to 5 μM in supplemented DMEM was added and cells were incubated at 37° C. for an additional 23 hours. The plates were then microscopically inspected for cytopathic effect (CPE) or toxicity and then frozen at −80° C. Virus titers for wells with limited CPE compared to DMSO vehicle-treated controls were then determined by plaque assay on Vero cells. Each experiment was repeated at least once.

HBV RNaseH [1] = biological target: T2, HBV RNaseH (Hepatitis B virus genotype D subtype ayw, UniProt P03156); settings: for Inhibition of HBV RNaseH, Oligonucleotide directed cleavage assay: Table 3, compounds at 100, 60 and 20 μM, compounds 1-91 and 138-140 previously reported (Cai et al., 2014); for HBV RNaseH: Table 1, qualitative inhibition in biochemical assay
Experimental: RNaseH expression and purification. […] The enriched extracts were dialyzed into 50 mM HEPES pH 7.3, 300 mM NaCl, 20% glycerol, and 5 mM DTT and stored in liquid nitrogen.
Oligonucleotide-directed RNA cleavage assay. […] This mixture was incubated with test compounds in 50 mM Tris pH 8.0, 190 mM NaCl, 5 mM MgCl2, 3.5 mM DTT, 0.05% NP40, 6% glycerol, and 1% DMSO at 42° C. for 90 minutes. Cleavage products were resolved by denaturing polyacrylamide gel electrophoresis, detected by autoradiography, and quantified using ImageJ. Non-specific background values were determined from the incorrect oligonucleotide negative control lane and subtracted from all experimental values. IC50 values were then calculated with GraphPad Prism using three-parameter log(inhibitor) vs. response non-linear curve fitting with the curve minimum set to zero to reflect background subtraction.
The HBV RNaseH inhibition activity of the 16 previously untested compounds was examined using an oligonucleotide-directed cleavage assay. Compounds were incubated with the HBV RNaseH, a ^32P-labeled RNA substrate plus a complementary DNA oligonucleotide and compounds at 100, 60, and 20 μM and the amount of the RNA cleavage products was measured following resolution on an acrylamide gel.
Briefly, a ^32P-labeled RNA was combined with a DNA oligonucleotide and the RNA:DNA substrate was incubated in the presence of the RNaseH and test compounds in 50 mM tris pH 8.0, 190 mM NaCl, 5 mM MgCl2, 3.5 mM DTT, 0.05% NP40, 6% glycerol, and 1% DMSO at 42° C. for 90 minutes. The products were resolved by gel electrophoresis and detected by audioradioagraphy.

HBV RNaseH [2] = biological target: T2, HBV RNaseH; assay: Molecular beacon RNaseH assay; settings: Table 3, 0 to 500 μM
Experimental: In this assay, a hairpin DNA oligonucleotide labeled with fluorescein on one end and a quencher on the other is held in a linear conformation by annealing to a complementary RNA; cleavage of the RNA causes the DNA to fold into a hairpin, suppressing fluorescence (FIG. 8A).
The substrate is a hairpin DNA oligonucleotide with a 5′ fluorescein reporter and a 3′ black hole quencher annealed to a complementary RNA oligonucleotide. The reaction was initiated by adding 5 mM Mg^++, and fluorescence was monitored at 37° C. with a Synergy 4 96-well plate reader. Inhibition was qualitatively determined as a dose-dependent reduction in the rate of substrate degradation.

[3] = HepDES19, Table 2, qualitative suppression of + and − DNA strands, read-out: EC50 (class symbols)
[4] = Human alphaherpesvirus 1, 24 h, 5 μM, Vero cells
[5] = HepDES19, read-out: HBV replication inhibition (EC50, μm)
[6] = Table 2, HepDES19 cells, read-out: EC50
[7] = Human alphaherpesvirus 1, Vero, 24 h

T2 sequence (P03156 671-832): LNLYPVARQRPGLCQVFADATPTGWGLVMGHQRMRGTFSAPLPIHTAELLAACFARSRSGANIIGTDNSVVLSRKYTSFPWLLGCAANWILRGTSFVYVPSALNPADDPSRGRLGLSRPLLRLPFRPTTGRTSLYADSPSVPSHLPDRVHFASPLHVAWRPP

| SMILES | IC50 (human RNaseH1) [µM] | EC50 (HBV replication; [3]) [µM] | HBV replication inhibition (qualitative) (HBV replication) | log reduction at 5 µM (HSV-1; [4]) | Inhibition of HBV RNaseH, Oligonucleotide directed cleavage assay (HBV RNaseH [1]) | Human RNaseH1 (human RNaseH1) | HBV RNaseH (HBV RNaseH [1]) | EC50 (HBV replication; [5]) [µM] | Inhibition of HBV RNaseH, Molecular Beacon cleavage assay (HBV RNaseH [2]) | EC50 (HBV replication; [6]) [µM] | log reduction at 5 µM (HSV-1; [7]) | inhibition of huRNaseH1 (human RNaseH1) | HBV replication inhibition / activity (HBV replication; HepDES19 cells) |
| --- | --- | --- | --- | --- | --- | --- | --- | --- | --- | --- | --- | --- | --- |
| Cc1ccc(CC2C(=O)N(O)C(=O)c3ccccc32)cc1 (stereo not shown) [Compound 80] | > 100 | > 20 | − (No inhibition detected at 20 μM) | < 1 | − (No inhibition detected at 100 μM) |  |  |  |  |  |  |  |  |
| CCCNC(=O)C1C(=O)N(O)C(=O)c2ccccc21 (stereo not shown) [Compound 82] |  | > 20 | − (No inhibition detected at 20 μM) | < 1 | − (No inhibition detected at 100 μM) | +++ (detectable inhibition at 10 μM) | +/− |  |  |  |  |  |  |
| O=C(Nc1ccccc1)C1C(=O)N(O)C(=O)c2ccccc21 (stereo not shown) [Compound 84] | 3.7 |  |  | < 1 | − (No inhibition detected at 100 μM) |  | +/− | 6.5 ± 4.5 | − (No inhibition detected at 500 μM) |  |  |  |  |
| O=C(NCc1ccccc1)C1C(=O)N(O)C(=O)c2ccccc21 (stereo not shown) [Compound 85] | 3.9 |  |  |  | − (No inhibition detected at 100 μM) |  | +/− | 6.5 ± 1.5 | − (No inhibition detected at 500 μM) | 6.5 | < 1 |  |  |
| COc1ccc(CNC(=O)C2C(=O)N(O)C(=O)c3ccccc32)cc1 (stereo not shown) [Compound 90] |  |  |  | < 1 | − (No inhibition detected at 100 μM) | ++ (detectable inhibition at 20 μM) |  | 19 ± 0.9 | − (No inhibition detected at 500 μM) | 18 |  |  |  |
| O=C(Nc1ccc(F)cc1)C1C(=O)N(O)C(=O)c2ccccc21 (stereo not shown) [Compound 91] | 8.7 |  |  | < 1 | − (No inhibition detected at 100 μM) |  |  | 4.6 ± 1 | − (No inhibition detected at 500 μM) |  |  |  |  |
| NN1C(=O)Cc2ccccc2C1=O [Compound 204] |  |  | − (No inhibition detected at 20 μM) | < 1 | − (No inhibition detected at 100 μM) |  |  |  |  |  |  | detectably inhibited | inactive |
| Nc1cccc(O)n1 [Compound 206] |  |  | − (No inhibition detected at 20 μM) | < 1 | − (No inhibition detected at 100 μM) |  |  |  |  |  |  | detectably inhibited |  |
| O=C1C(=O)N(O)C2CCCCC2N1O (stereo not shown) [Compound 217] |  |  | − (No inhibition detected at 20 μM) |  | − (No inhibition detected at 100 μM) |  |  |  |  |  | < 1 | detectably inhibited |  |
| O=C1Cn2c(cc3cc(O)ccc32)C(=O)N1O [Compound 240] |  |  | − (No inhibition detected at 20 μM) | < 1 | − (No inhibition detected at 100 μM) |  |  |  |  |  |  | detectably inhibited |  |
